The numbers were not newly measured in patent US20050053655A1, “Rapid disintegrating tablets (RDTs) for pharmaceutical use and method for preparing the same” (Pharmaceutical Industry Technology and Development Center, priority 2003, published 2005), which cites them from elsewhere.

In the case of `NC(N)=Nc1nc(CSCCC(N)=NS(N)(=O)=O)cs1` [Famotidine, famotidine], the solubility in water result is on record as “very slightly soluble in water”.
